According to patent publication US10570179B2, “Substituted urea depsipeptide analogs as activators of the CLPP endopeptidase” (priority 2016, dated 2020):
Converted amounts (≈) assume the structure as drawn. Read-outs that look alike come from different tables or passages of the source. Numbered stars: 1 amine (or outer) side, 2 acyl side, 3 side chain; on linkers, the order of the positions; unused ones are H or OH. Bridge positions count the residues as written; N and C are the ends. Square brackets hold non-standard residues; d marks the D form. Peptide text beside a SMILES is read from it. * marks the point of attachment. Piperazine(2S-CO,4-Me) = CN1CCN[C@H](C(=O)O)C1; Morpholine(3S-CO) = O=C(O)[C@@H]1COCCN1; Phe(3-Me) = Cc1cccc(C[C@H](N)C(=O)O)c1; Pro(4S-Me) = C[C@@H]1CN[C@H](C(=O)O)C1; Pro(4R-Me) = C[C@H]1CN[C@H](C(=O)O)C1; Hyp = O=C(O)[C@@H]1C[C@@H](O)CN1; NH(3-Cl-phenyl) = Clc1cccc(N*)c1; NH(4-Cl-phenyl) = Clc1ccc(N*)cc1; NH(4-Et-phenyl) = CCc1ccc(N*)cc1; aThr = C[C@H](O)[C@H](N)C(=O)O; Pip = O=C(O)[C@@H]1CCCCN1; CO = O=C([*:1])[*:2]

How the values were obtained:
S. aureus ClpP (Sa-ClpP) = molecular target: T1, S. aureus ClpP (Sa-ClpP) (Staphylococcus aureus, UniProt Q2G036); assay: Casein-BODIPY digestion assay (ClpP activation); assay type: biochemical
T1 construct: made in house; host or cells: E. coli BL21 (DE3)

S. aureus ΔClpP = assay: Minimal inhibitory concentration, microbroth dilution; assay type: cell-based, Staphylococcus aureus; settings: MIC; ClpP inactivated
Summary of the method: (§1)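 Growth inhibition was scored visually after overnight aerobic culture at 37 °C in CLSI-style microdilution plates. Inocula contained about 10^5 cfu/mL, and compound concentrations descended in twofold steps from 200 μM.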

E. faecails = assay: as above; assay type: cell-based; settings: Enterococcus faecalis
Summary of the method: as §1

S. aureus ATCC 29213 = assay: as above; assay type: cell-based; settings: Staphylococcus aureus
Summary of the method: as §1

S. aureus USA 300 = assay: as above; assay type: cell-based; settings: Staphylococcus aureus
Summary of the method: as §1

MRSA NRS70 = assay: as above; assay type: cell-based; settings: Staphylococcus aureus
Summary of the method: as §1

[1] = read-out: Minimal Inhibitory Concentrations (μM) E. faecails, MIC
[2] = ATCC29213, read-out: Minimal Inhibitory Concentrations (μM) S. aureus ATCC 29213, MIC
[3] = USA300, read-out: Minimal Inhibitory Concentrations (μM) S. aureus USA 300, MIC
[4] = read-out: Minimal Inhibitory Concentrations (μM) MRSA NRS70, MIC
[5] = MIC, read-out: Minimal Inhibitory Concentrations (μM) E. faecails
[6] = ATCC29213, MIC, read-out: Minimal Inhibitory Concentrations (μM) S. aureus ATCC 29213
[7] = USA300, MIC, read-out: Minimal Inhibitory Concentrations (μM) S. aureus USA 300
[8] = MIC, read-out: Minimal Inhibitory Concentrations (μM) MRSA NRS70

T1 sequence (Q2G036 whole entry): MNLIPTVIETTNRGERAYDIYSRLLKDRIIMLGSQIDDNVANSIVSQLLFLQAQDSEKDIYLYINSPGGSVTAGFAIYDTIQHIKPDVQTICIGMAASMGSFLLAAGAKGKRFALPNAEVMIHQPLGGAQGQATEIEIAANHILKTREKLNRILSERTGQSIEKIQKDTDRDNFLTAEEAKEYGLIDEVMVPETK

| Compound | EC50 (S. aureus ClpP (Sa-ClpP)) | Minimal Inhibitory Concentrations (μM) S. aureus ΔClpP (S. aureus ΔClpP) | MIC (E. faecails; [1]) | MIC (S. aureus ATCC 29213; [2]) | MIC (S. aureus USA 300; [3]) | MIC (MRSA NRS70; [4]) | MIC (E. faecails; [5]) | MIC (S. aureus ATCC 29213; [6]) | MIC (S. aureus USA 300; [7]) | MIC (MRSA NRS70; [8]) |
| --- | --- | --- | --- | --- | --- | --- | --- | --- | --- | --- |
| Cc1cccc(C[C@H](NC(=O)Nc2cccc(Cl)c2)C(=O)N[C@@H]2C(=O)N3CCC[C@H]3C(=O)N3CCCC[C@H]3C(=O)N[C@@H](C)C(=O)N3C[C@H](C)C[C@H]3C(=O)O[C@H]2C)c1 [Compound 64, (S)-2-(3-(3-CHLOROPHENYL)UREIDO)-3-(M-TOLYL)-N-((2R,6S,8AS,14AS,20S,21S,23AS)-2,6,21-TRIMETHYL-5,8,14,19,23-PENTAOXOOCTADECAHYDRO-1H,5H,14H,19H-PYRIDO[2,1-I]DIPYRROLO[2,1-C:2′,1′-L][1]OXA[4,7,10,13]TETRAAZACYCLOHEXADECIN-20-YL)PROPANAMIDE] ({NH(3-Cl-phenyl)-CO}-[Phe(3-Me)][aThr]P[Pip]A[Pro(4R-Me)]; ester 2-C) | 430 ± 200 nM | >20 µM | 10 µM (≈ 8.06 µg/mL) | 0.625 µM (≈ 0.504 µg/mL) | 1.25 µM (≈ 1.01 µg/mL) | 0.625 µM (≈ 0.504 µg/mL) |  |  |  |  |
| CCc1ccc(NC(=O)N[C@@H](Cc2cccc(C)c2)C(=O)N[C@@H]2C(=O)N3C[C@H](O)C[C@H]3C(=O)N3CCCC[C@H]3C(=O)N[C@@H](C)C(=O)N3C[C@@H](C)C[C@H]3C(=O)O[C@H]2C)cc1 [Compound 65, (S)-2-(3-(4-ETHYLPHENYL)UREIDO)-N-((2S,6S,8AS,14AS,16R,20S,21S,23AS)-16-HYDROXY-2,6,21-TRIMETHYL-5,8,14,19,23-PENTAOXOOCTADECAHYDRO-1H,5H,14H,19H-PYRIDO[2,1-I]DIPYRROLO[2,1-C:2′,1′-L][1]OXA[4,7,10,13]TETRAAZACYCLOHEXADECIN-20-YL)-3-(M-TOLYL)PROPANAMIDE] ({NH(4-Et-phenyl)-CO}-[Phe(3-Me)][aThr][Hyp][Pip]A[Pro(4S-Me)]; ester 2-C) | 410 ± 100 nM | >20 µM |  |  |  |  | 1.25 µM (≈ 1.02 µg/mL) | 0.313 µM (≈ 0.255 µg/mL) | 0.156 µM (≈ 0.127 µg/mL) | 0.156 µM (≈ 0.127 µg/mL) |
| Cc1cccc(C[C@H](NC(=O)Nc2ccc(Cl)cc2)C(=O)N[C@@H]2C(=O)N3C[C@H](O)C[C@H]3C(=O)N3CCCC[C@H]3C(=O)N[C@@H](C)C(=O)N3C[C@@H](C)C[C@H]3C(=O)O[C@H]2C)c1 [Compound 66, (S)-2-(3-(4-CHLOROPHENYL)UREIDO)-N-((2S,6S,8AS,14AS,16R,20S,21S,23AS)-16-HYDROXY-2,6,21-TRIMETHYL-5,8,14,19,23-PENTAOXOOCTADECAHYDRO-1H,5H,14H,19H-PYRIDO[2,1-I]DIPYRROLO[2,1-C:2′,1′-L][1]OXA[4,7,10,13]TETRAAZACYCLOHEXADECIN-20-YL)-3-(M-TOLYL)PROPANAMIDE] ({NH(4-Cl-phenyl)-CO}-[Phe(3-Me)][aThr][Hyp][Pip]A[Pro(4S-Me)]; ester 2-C) | 160 ± 100 nM | >20 µM | 1.25 µM (≈ 1.03 µg/mL) | 0.625 µM (≈ 0.514 µg/mL) | 0.313 µM (≈ 0.257 µg/mL) | 1.25 µM (≈ 1.03 µg/mL) |  |  |  |  |
| Cc1cccc(C[C@H](NC(=O)Nc2cccc(Cl)c2)C(=O)N[C@@H]2C(=O)N3C[C@H](O)C[C@H]3C(=O)N3CCCC[C@H]3C(=O)N[C@@H](C)C(=O)N3C[C@@H](C)C[C@H]3C(=O)O[C@H]2C)c1 [Compound 67, (S)-2-(3-(3-CHLOROPHENYL)UREIDO)-N-((2S,6S,8AS,14AS,16R,20S,21S,23AS)-16-HYDROXY-2,6,21-TRIMETHYL-5,8,14,19,23-PENTAOXOOCTADECAHYDRO-1H,5H,14H,19H-PYRIDO[2,1-I]DIPYRROLO[2,1-C:2′,1′-L][1]OXA[4,7,10,13]TETRAAZACYCLOHEXADECIN-20-YL)-3-(M-TOLYL)PROPANAMIDE] ({NH(3-Cl-phenyl)-CO}-[Phe(3-Me)][aThr][Hyp][Pip]A[Pro(4S-Me)]; ester 2-C) | 440 ± 300 nM | >20 µM | 5 µM (≈ 4.11 µg/mL) | 2.5 µM (≈ 2.06 µg/mL) | 2.5 µM (≈ 2.06 µg/mL) | 2.5 µM (≈ 2.06 µg/mL) |  |  |  |  |
| Cc1cccc(C[C@H](NC(=O)Nc2ccc(Cl)cc2)C(=O)N[C@@H]2C(=O)N3C[C@H](O)C[C@H]3C(=O)N3CCN(C)C[C@H]3C(=O)N[C@@H](C)C(=O)N3C[C@H](C)C[C@H]3C(=O)O[C@H]2C)c1 [Compound 68, (S)-2-(3-(4-CHLOROPHENYL)UREIDO)-N-((6AS,8R,12S,13S,15AS,17R,21S,23AS)-8-HYDROXY-2,13,17,21-TETRAMETHYL-6,11,15,20,23-PENTAOXOOCTADECAHYDRO-2H,6H,11H,15H-PYRAZINO[2,1-I]DIPYRROLO[2,1-C:2′,1′-L][1]OXA[4,7,10,13]TETRAAZACYCLOHEXADECIN-12-YL)-3-(M-TOLYL)PROPANAMIDE] ({NH(4-Cl-phenyl)-CO}-[Phe(3-Me)][aThr][Hyp][Piperazine(2S-CO,4-Me)]A[Pro(4R-Me)]; ester 2-C) | 290 ± 100 nM | >20 µM | 0.625 µM (≈ 0.523 µg/mL) | 1.25 µM (≈ 1.05 µg/mL) | 0.625 µM (≈ 0.523 µg/mL) | 2.5 µM (≈ 2.09 µg/mL) |  |  |  |  |
| Cc1cccc(C[C@H](NC(=O)Nc2cccc(Cl)c2)C(=O)N[C@@H]2C(=O)N3C[C@H](O)C[C@H]3C(=O)N3CCN(C)C[C@H]3C(=O)N[C@@H](C)C(=O)N3C[C@H](C)C[C@H]3C(=O)O[C@H]2C)c1 [Compound 69, (S)-2-(3-(3-CHLOROPHENYL)UREIDO)-N-((6AS,8R,12S,13S,15AS,17R,21S,23AS)-8-HYDROXY-2,13,17,21-TETRAMETHYL-6,11,15,20,23-PENTAOXOOCTADECAHYDRO-2H,6H,11H,15H-PYRAZINO[2,1-I]DIPYRROLO[2,1-C:2′,1′-L][1]OXA[4,7,10,13]TETRAAZACYCLOHEXADECIN-12-YL)-3-(M-TOLYL)PROPANAMIDE] ({NH(3-Cl-phenyl)-CO}-[Phe(3-Me)][aThr][Hyp][Piperazine(2S-CO,4-Me)]A[Pro(4R-Me)]; ester 2-C) | 390 ± 800 nM | >20 µM | 5 µM (≈ 4.19 µg/mL) | 5 µM (≈ 4.19 µg/mL) | 2.5 µM (≈ 2.09 µg/mL) | 5 µM (≈ 4.19 µg/mL) |  |  |  |  |
| CCc1ccc(NC(=O)N[C@@H](Cc2cccc(C)c2)C(=O)N[C@H]2COC(=O)[C@@H]3C[C@@H](C)CN3C(=O)[C@H](C)NC(=O)[C@@H]3CCCCN3C(=O)[C@@H]3CCCN3C2=O)cc1 [Compound 70, (S)—N-((2R,6S,8AS,14AS,20S,23AS)-2,6-DIMETHYL-5,8,14,19,23-PENTAOXOOCTADECAHYDRO-1H,5H,14H,19H-PYRIDO[2,1-I]DIPYRROLO[2,1-C:2′,1′-L][1]OXA[4,7,10,13]TETRAAZACYCLOHEXADECIN-20-YL)-2-(3-(4-ETHYLPHENYL)UREIDO)-3-(M-TOLYL)PROPANAMIDE] | 290 ± 100 nM | >20 µM |  |  |  |  | 0.156 µM (≈ 0.123 µg/mL) | 0.625 µM (≈ 0.491 µg/mL) | 0.313 µM (≈ 0.246 µg/mL) | 0.313 µM (≈ 0.246 µg/mL) |
| Cc1cccc(C[C@H](NC(=O)Nc2ccc(Cl)cc2)C(=O)N[C@H]2COC(=O)[C@@H]3C[C@@H](C)CN3C(=O)[C@H](C)NC(=O)[C@@H]3CCCCN3C(=O)[C@@H]3CCCN3C2=O)c1 [Compound 71, (S)-2-(3-(4-CHLOROPHENYL)UREIDO)-N-((2R,6S,8AS,14AS,20S,23AS)-2,6-DIMETHYL-5,8,14,19,23-PENTAOXOOCTADECAHYDRO-1H,5H,14H,19H-PYRIDO[2,1-I]DIPYRROLO[2,1-C:2′,1′-L][1]OXA[4,7,10,13]TETRAAZACYCLOHEXADECIN-20-YL)-3-(M-TOLYL)PROPANAMIDE] | 250 ± 100 nM | >20 µM | 0.313 µM (≈ 0.248 µg/mL) | 0.625 µM (≈ 0.495 µg/mL) | 0.625 µM (≈ 0.495 µg/mL) | 0.313 µM (≈ 0.248 µg/mL) |  |  |  |  |
| Cc1cccc(C[C@H](NC(=O)Nc2ccc(Cl)cc2)C(=O)N[C@@H]2C(=O)N3C[C@H](O)C[C@H]3C(=O)N3CCOC[C@H]3C(=O)N[C@@H](C)C(=O)N3C[C@H](C)C[C@H]3C(=O)O[C@H]2C)c1 [Compound 73, (S)-2-(3-(4-CHLOROPHENYL)UREIDO)-N-((6AS,8R,12S,13S,15AS,17R,21S,23AS)-8-HYDROXY-13,17,21-TRIMETHYL-6,11,15,20,23-PENTAOXOOCTADECAHYDRO-6H,11H,15H-[1,4]OXAZINO[3,4-I]DIPYRROLO[2,1-C:2′,1′-L][1]OXA[4,7,10,13]TETRAAZACYCLOHEXADECIN-12-YL)-3-(M-TOLYL)PROPANAMIDE] ({NH(4-Cl-phenyl)-CO}-[Phe(3-Me)][aThr][Hyp][Morpholine(3S-CO)]A[Pro(4R-Me)]; ester 2-C) | 250 ± 100 nM | >20 µM | 0.625 µM (≈ 0.515 µg/mL) | 2.5 µM (≈ 2.06 µg/mL) | 0.625 µM (≈ 0.515 µg/mL) | 2.5 µM (≈ 2.06 µg/mL) |  |  |  |  |
